Consider 13 compounds from US7074789B2, “Kinase inhibitors” (Amgen Inc., priority 1999, dated 2006).

SMILES strings stand for the structures. pIC50: −log10 of the molar value.

Holding throughout (type): biochemical
One assay addresses T1, Lck (Homo sapiens, UniProt P06239).
T1 construct: Kinases are expressed as either kinase domains or full length constructs; made in house
Briefly: Kinase inhibition assay (33P transfer), Lck. The settings on record: Table 3; read-out: Lck-1. An excerpt: (§1) The inhibitor compounds described herein are screened in the following manner. Kinases suitable for use in the following protocol to determine kinase activity of the compounds described herein include, -but are not limited to: Lck, Lyn, Src, Fyn, Syk, Zap-70, Itk, Tec, Btk, EGFR, ErbB2, Kdr, Flt-1, Flt-3, Tek, c-Met, InsR, and AKT.
(§2) Kinases are expressed as either kinase domains or full length constructs fused to glutathione S-transferase (GST) or polyHistidine tagged fusion proteins in either E. colior Baculovirus-High Five expression systems. […] In some instances, kinases are co-expressed or mixed with purified or partially purified regulatory polypeptides prior to measurement of activity.
(§3) Briefly, The transfer of ^33PO4 from ATP to the synthetic substrates poly(Glu, Tyr) 4:1 or poly(Arg, Ser) 3:1 attached to the bioactive surface of microtiter plates serves as the basis to evaluate enzyme activity. After an incubation period, the amount of phosphate transferred is measured by first washing the plate with 0.5% phosphoric acid, adding liquid scintillant, and then counting in a liquid scintillation detector.

A further assay addresses T2, Zap-70 (Homo sapiens, UniProt P43403).
T2 construct: Kinases are expressed as either kinase domains or full length constructs; made in house
T2 sequence (P43403 1-619): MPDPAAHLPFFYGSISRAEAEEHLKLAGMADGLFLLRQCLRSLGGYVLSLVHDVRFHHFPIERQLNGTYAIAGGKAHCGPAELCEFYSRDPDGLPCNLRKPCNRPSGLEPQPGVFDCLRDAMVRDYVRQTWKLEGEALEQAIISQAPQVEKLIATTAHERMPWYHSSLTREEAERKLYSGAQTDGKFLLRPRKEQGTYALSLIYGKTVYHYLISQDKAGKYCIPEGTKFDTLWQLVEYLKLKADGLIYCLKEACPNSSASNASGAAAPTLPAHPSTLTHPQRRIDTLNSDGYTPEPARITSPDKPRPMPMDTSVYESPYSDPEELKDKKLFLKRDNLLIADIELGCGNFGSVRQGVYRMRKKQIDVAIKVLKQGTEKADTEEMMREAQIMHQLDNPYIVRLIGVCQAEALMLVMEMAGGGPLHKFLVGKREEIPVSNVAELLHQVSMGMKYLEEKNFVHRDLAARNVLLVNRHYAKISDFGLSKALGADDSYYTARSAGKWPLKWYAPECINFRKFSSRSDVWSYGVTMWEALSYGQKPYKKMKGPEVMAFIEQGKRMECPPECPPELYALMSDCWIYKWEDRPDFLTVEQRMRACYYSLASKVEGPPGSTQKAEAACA
Briefly: Kinase inhibition assay (33P transfer), Zap-70. The settings on record: Table 3; read-out: Zap-1.
Excerpt: as §1, §2, §3

The next assay has as its target T3, Kdr (Homo sapiens, UniProt P35968).
T3 construct: Kinases are expressed as either kinase domains or full length constructs; made in house
Description: Kinase inhibition assay (33P transfer), Kdr. The settings on record: Table 3; read-out: KDR-1.
Excerpt: as §1, §2, §3

Another assay concerns the target T4, c-Met (Homo sapiens, UniProt P08581).
T4 construct: Kinases are expressed as either kinase domains or full length constructs; made in house
Briefly: Kinase inhibition assay (33P transfer), c-Met. The settings on record: Table 2, kinase inhibition class; read-out: Met-1.
Excerpt: as §1
(§4) Kinases are expressed as either kinase domains or full length constructs fused to glutathione S-transferase (GST) or polyHistidine tagged fusion proteins in either E. colior Baculovirus-High Five expression systems. They are purified to near homogeneity by affinity chromatography essentially as previously described (Lehr et al., 1996; Gish et al., 1995). In some instances, kinases are co-expressed or mixed with purified or partially purified regulatory polypeptides prior to measurement of activity.
as §3, with “Kinase activity and inhibition are measured essentially by established protocols (Braunwalder et al., 1996). Briefly,” for “Briefly,”, “detector. The IC50 is determined by the concentration of compound that causes a 50% reduction in the amount of […] incorporated onto the substrate bound to the plate.” for “detector.”

A further assay has as its target T5, Itk (Homo sapiens, UniProt Q08881).
T5 construct: Kinases are expressed as either kinase domains or full length constructs; made in house
T5 sequence (Q08881 1-620): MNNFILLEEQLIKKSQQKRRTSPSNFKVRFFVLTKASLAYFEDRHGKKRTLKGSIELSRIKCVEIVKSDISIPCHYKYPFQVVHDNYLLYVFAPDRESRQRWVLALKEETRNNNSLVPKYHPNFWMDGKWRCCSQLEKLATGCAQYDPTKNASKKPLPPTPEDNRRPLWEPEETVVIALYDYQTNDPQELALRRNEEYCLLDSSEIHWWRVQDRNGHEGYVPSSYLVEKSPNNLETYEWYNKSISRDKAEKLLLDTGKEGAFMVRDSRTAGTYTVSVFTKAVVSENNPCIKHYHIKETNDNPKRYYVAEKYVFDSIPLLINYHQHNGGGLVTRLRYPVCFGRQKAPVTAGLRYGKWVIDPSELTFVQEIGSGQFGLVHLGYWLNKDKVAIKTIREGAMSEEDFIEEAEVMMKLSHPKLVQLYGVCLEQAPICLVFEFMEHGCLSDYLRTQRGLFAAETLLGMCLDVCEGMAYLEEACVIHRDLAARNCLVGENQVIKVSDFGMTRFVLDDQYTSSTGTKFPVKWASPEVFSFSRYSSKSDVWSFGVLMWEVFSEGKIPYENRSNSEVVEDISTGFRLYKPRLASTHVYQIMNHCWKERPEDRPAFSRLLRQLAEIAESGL
Description: Kinase inhibition assay (33P transfer), Itk. The settings on record: Table 3; read-out: Itk-1.
Excerpt: as §1, §4
as §3, with “Kinase activity and inhibition are measured essentially by established protocols (Braunwalder et al., 1996). Briefly,” for “Briefly,”, “detector. The IC50 is determined by the concentration of compound that causes a 50% reduction in the amount of […] incorporated onto the substrate bound to the plate.” for “detector.”

The next assay has as its target T6, EGFR (Homo sapiens, UniProt P00533).
T6 construct: Kinases are expressed as either kinase domains or full length constructs; made in house
Description: Kinase inhibition assay (33P transfer), EGFR. The settings on record: Table 2, kinase inhibition class; read-out: EGFR-1.
Excerpt: as §1, §4
as §3, with “Kinase activity and inhibition are measured essentially by established protocols (Braunwalder et al., 1996). Briefly,” for “Briefly,”, “detector. The IC50 is determined by the concentration of compound that causes a 50% reduction in the amount of […] incorporated onto the substrate bound to the plate.” for “detector.”

T1 sequence (P06239 whole entry, species assumed, the tested form may be a part): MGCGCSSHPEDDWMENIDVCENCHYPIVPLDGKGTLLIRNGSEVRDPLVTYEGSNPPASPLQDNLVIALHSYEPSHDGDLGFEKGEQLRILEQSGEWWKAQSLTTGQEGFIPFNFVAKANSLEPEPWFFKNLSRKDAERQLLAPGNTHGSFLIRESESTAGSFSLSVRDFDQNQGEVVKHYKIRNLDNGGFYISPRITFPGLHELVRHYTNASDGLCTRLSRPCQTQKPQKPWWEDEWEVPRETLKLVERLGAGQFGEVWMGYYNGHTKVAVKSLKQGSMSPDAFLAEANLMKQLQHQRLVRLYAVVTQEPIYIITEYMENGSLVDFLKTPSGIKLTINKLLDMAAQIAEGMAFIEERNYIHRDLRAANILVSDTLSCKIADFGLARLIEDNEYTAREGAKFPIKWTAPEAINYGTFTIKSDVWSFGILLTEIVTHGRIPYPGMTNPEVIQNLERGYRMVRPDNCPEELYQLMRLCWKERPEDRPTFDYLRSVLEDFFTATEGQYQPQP
T4 sequence (P08581 25-1390): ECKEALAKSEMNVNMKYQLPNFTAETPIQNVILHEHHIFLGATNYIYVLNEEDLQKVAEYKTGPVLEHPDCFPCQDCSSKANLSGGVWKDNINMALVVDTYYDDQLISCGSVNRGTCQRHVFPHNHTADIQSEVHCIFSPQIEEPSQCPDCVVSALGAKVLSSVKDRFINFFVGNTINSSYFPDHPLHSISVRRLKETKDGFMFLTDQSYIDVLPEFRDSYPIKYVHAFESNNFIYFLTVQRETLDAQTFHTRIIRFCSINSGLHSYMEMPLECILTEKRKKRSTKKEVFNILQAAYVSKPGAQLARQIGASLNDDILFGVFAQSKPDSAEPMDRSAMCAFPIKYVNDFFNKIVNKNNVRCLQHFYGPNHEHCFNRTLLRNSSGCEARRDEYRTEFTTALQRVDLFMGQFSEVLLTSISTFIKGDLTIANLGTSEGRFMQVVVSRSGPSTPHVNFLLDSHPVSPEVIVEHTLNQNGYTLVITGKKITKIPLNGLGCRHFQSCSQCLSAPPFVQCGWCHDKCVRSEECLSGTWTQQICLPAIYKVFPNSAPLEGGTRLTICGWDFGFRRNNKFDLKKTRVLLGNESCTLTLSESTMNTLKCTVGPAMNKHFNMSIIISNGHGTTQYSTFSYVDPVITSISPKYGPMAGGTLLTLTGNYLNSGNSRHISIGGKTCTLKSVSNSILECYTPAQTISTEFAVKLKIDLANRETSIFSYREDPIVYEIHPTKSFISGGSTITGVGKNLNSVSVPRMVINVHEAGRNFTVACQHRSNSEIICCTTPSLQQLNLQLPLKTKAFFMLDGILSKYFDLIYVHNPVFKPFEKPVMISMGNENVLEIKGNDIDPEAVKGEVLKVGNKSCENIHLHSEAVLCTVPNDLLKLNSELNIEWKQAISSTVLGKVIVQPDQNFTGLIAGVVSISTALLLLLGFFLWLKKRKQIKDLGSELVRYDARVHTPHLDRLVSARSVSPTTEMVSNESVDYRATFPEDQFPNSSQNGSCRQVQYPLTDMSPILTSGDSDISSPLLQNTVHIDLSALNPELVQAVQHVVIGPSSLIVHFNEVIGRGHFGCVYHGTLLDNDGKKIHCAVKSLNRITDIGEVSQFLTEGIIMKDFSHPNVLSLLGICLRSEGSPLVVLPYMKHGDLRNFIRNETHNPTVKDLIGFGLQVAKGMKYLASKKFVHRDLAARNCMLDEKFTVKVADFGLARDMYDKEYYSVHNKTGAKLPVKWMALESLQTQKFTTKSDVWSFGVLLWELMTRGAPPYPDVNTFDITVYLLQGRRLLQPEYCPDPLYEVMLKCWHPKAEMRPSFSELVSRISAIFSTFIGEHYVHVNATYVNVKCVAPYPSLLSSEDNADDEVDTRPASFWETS
T6 sequence (P00533 25-1210, species assumed): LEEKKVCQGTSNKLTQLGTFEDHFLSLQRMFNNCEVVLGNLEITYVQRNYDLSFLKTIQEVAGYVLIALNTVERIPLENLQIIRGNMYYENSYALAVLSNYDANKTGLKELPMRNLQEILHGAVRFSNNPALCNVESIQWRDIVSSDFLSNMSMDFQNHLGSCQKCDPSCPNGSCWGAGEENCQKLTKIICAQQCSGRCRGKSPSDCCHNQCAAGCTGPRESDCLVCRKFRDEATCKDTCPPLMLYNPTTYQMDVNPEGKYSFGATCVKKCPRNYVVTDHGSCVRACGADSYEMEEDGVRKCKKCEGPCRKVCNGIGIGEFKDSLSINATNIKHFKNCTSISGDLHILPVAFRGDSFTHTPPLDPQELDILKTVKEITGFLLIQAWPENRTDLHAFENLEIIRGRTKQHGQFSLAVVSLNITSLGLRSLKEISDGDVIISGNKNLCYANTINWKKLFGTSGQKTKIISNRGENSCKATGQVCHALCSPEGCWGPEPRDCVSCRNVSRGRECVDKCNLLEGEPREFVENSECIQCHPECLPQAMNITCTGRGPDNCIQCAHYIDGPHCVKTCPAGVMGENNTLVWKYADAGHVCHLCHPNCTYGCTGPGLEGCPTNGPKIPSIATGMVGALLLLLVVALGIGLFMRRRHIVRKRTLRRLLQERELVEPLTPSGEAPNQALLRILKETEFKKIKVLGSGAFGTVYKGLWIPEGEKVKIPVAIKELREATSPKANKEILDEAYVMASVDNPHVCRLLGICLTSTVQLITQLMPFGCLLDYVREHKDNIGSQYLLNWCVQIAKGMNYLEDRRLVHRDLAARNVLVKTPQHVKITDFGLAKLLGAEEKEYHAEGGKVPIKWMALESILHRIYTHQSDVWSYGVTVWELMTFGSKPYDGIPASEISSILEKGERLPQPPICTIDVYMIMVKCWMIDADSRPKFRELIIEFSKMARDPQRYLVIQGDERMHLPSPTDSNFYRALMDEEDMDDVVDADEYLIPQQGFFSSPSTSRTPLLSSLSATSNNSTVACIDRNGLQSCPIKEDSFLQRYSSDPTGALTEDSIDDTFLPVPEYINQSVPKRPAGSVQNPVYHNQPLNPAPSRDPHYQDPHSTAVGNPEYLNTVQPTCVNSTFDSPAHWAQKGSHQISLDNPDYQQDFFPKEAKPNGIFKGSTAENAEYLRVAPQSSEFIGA
T3 sequence (P35968 20-1356, species assumed): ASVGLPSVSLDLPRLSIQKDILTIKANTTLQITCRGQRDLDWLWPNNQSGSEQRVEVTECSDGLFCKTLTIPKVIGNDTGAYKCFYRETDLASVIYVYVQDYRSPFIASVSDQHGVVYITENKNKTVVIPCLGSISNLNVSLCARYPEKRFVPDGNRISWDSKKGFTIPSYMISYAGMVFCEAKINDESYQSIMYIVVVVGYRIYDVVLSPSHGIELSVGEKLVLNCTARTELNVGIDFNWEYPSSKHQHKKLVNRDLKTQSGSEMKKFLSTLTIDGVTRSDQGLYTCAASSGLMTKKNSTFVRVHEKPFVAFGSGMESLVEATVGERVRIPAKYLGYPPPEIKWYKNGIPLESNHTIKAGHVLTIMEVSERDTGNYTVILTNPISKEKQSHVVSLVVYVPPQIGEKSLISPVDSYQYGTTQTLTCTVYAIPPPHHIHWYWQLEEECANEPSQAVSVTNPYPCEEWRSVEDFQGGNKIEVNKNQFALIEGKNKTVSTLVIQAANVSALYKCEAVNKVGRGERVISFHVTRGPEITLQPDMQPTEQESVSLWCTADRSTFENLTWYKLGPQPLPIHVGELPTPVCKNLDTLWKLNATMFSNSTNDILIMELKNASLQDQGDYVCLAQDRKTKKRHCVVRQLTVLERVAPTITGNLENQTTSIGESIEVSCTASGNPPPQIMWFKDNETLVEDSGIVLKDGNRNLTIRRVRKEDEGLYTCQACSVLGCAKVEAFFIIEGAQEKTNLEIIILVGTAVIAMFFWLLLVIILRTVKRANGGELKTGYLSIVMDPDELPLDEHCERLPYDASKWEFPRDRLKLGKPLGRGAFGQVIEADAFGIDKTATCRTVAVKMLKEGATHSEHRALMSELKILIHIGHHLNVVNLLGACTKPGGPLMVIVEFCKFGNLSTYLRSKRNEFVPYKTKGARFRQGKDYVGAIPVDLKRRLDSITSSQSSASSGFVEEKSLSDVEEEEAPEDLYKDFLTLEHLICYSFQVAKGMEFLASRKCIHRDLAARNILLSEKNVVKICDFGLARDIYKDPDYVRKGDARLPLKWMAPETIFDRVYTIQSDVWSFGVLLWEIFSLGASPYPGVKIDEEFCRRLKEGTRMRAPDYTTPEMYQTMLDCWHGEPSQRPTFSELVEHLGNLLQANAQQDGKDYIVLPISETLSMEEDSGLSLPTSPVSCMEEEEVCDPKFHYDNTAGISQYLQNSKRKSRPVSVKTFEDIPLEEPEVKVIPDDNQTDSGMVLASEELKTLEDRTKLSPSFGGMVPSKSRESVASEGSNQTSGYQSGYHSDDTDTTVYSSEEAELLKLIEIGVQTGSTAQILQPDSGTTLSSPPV

Consider `Clc1cccc(Nc2ncnc(-n3cccc3)n2)c1` [Compound 275], for which the pIC50 on Lck is below 4.78; on Zap-70 it was below 4.78; on Kdr, 5.05 to 5.83; on c-Met, 4.78 to 4.89; at Itk it was below 4.78; at EGFR it was below 4.78.

For the compound `COc1ccc(Nc2ncnc(-n3cccc3)n2)c(OC)c1` [Compound 273], the pIC50 on Lck, on Zap-70, on Kdr, at c-Met, at Itk and at EGFR was below 4.82 throughout.

For `Nc1ncnc(Nc2cccc(C(F)(F)F)c2)n1` [Compound 1015], the pIC50 at Lck, on Zap-70, on Kdr, on c-Met, at Itk and at EGFR was below 4.75 each time.

As for `Nc1ncnc(Nc2ccc(F)cc2F)n1` [Compound 1014], the pIC50 on Lck, at Zap-70, on Kdr, on c-Met, at Itk and at EGFR was below 4.70 throughout.

With `Brc1ccc(Nc2ncnc(-n3cccc3)n2)cc1` [Compound 272], the pIC50 on Lck is below 4.85; on Zap-70, 4.96 to 5.12; on Kdr it was below 4.85; at c-Met, below 4.85; on Itk it was below 4.85; on EGFR, below 4.85.

On to `Cc1cc(Br)ccc1Nc1ncnc(-n2cccc2)n1` [Compound 282], for which the pIC50 at Lck was below 4.87; on Zap-70 it was below 4.87; at Kdr it was below 4.87; at c-Met it was 4.97 to 5.14; at Itk, below 4.87; at EGFR, below 4.87.

On to `Nc1ncnc(Nc2cccc(Cl)c2)n1` [Compound 1019], for which the pIC50 at Lck was below 4.69; on Zap-70 it was below 4.69; at Kdr it was 4.80 to 4.97; at c-Met, below 4.69; at Itk it was below 4.69; on EGFR, below 4.69.

Regarding `Clc1cc(Cl)cc(Nc2ncnc(-n3cccc3)n2)c1` [Compound 274], the pIC50 was below 4.83 at Lck; below 4.83 on Zap-70; 5.11 to 5.88 on Kdr; below 4.83 at c-Met; below 4.83 at Itk; below 4.83 on EGFR.

Consider `Nc1ncnc(Nc2nc(-c3ccc(Cl)cc3)cs2)n1` [Compound 1016], for which the pIC50 at Lck, at Zap-70, on Kdr, at c-Met, at Itk and on EGFR was below 4.83 in each case.

On to `Fc1ccc(Nc2ncnc(-n3cccc3)n2)cc1` [Compound 284], for which the pIC50 is below 4.75 at Lck; below 4.75 on Zap-70; 4.75 to 4.86 on Kdr; below 4.75 at c-Met; below 4.75 at Itk; below 4.75 at EGFR.

For the compound `Cc1ccc(Nc2ncnc(-n3cccc3)n2)cc1Cl` [Compound 276], the pIC50 was below 4.80 on Lck; below 4.80 on Zap-70; 5.08 to 5.85 on Kdr; below 4.80 at c-Met; below 4.80 on Itk; below 4.80 on EGFR.

In the case of `Cc1cccc(Nc2ncnc(-n3cccc3)n2)c1C` [Compound 281], the pIC50 at Lck, on Zap-70, at Kdr, at c-Met, on Itk and at EGFR was below 4.77 throughout.

For `Cc1ccc(Nc2ncnc(N)n2)cc1` [Compound 1017], the pIC50 on Lck, at Zap-70, at Kdr, at c-Met, on Itk and on EGFR was below 4.65 throughout.
